Laboratory results from publication PMC10714399, “Open Source Antibiotics: Simple Diarylimidazoles Are Potent against Methicillin-Resistant Staphylococcus aureus” (ACS Infectious Diseases, 2023).

Experiments:
[1] = Mouse liver microsome (MLM) metabolic stability (UNC); format: in vitro ADME
Text: Supplement id3c00286_si_002.xlsx, sheet "Series 2 Data" | column: MLM Clint (mL/min/kg) (UNC); MLM t1/2 (min) (UNC); MLM E (UNC)

[2] = LogD7.4 (Chrom Log D); format: physicochemical; conditions: chromatographic system (Chrom Log D); pH 7.4, NEU; read-out: LogD 7.4 (NEU)

Row | Structure (SMILES) | MLM E (UNC) ([1]; mouse liver microsomes) | CLint scaled ([1]; mouse, liver microsomes) | half-life ([1]; mouse, liver microsomes, read-out: MLM t1/2 (UNC)) | chromatographic logD [2]
1 | c1ccc(-c2nc3n(c2-c2ccc4sccc4c2)CCC3)nc1 [OSA_000822] | 0.929 | 1170 mL/min/kg | 4.8 min | –
2 | c1ccc(-c2nc3n(c2-c2ccc4occc4c2)CCC3)nc1 [compound 821] | – | – | – | 2.7
